Laboratory results from patent publication US12384765B2, “Catecholamine prodrugs for use in the treatment of Parkinson's Disease” (H. Lundbeck A/S, priority 2019, dated 2025).

Experiments:
human 5-HT2B receptor = human 5-HT2B receptor (Homo sapiens (Human), UniProt P41595); assay: 5-HT2B agonist activity assay (IP1 production, HTRF); format: cell-based; conditions: for activity at 10 µM: read-out: 5-HT2B agonist activity, percent of control response
Description: Evaluation of the agonist activity of compounds (I), (Ia), (Ib), (Ic), (Ia-iab), compound (2), compound (9), compound (15), compound (27), A2, A3, and A7 at the human 5-HT2B receptor was performed by Eurofins/Cerep (France) measuring the compound effects on inositol monophosphate (IP1) production using the HTRF detection method. Briefly, the human 5-HT2B receptor was expressed in transfected CHO cells. The cells were suspended in a buffer containing 10 mM Hepes/NaOH (pH 7.4), 4.2 mM KCl, 146 mM NaCl, 1 mM CaCl2, 0.5 mM MgCl2, 5.5 mM glucose and 50 mM LiCl, then distributed in microplates at a density of 4100 cells/well and incubated for 30 minutes at 37° C. in the presence of buffer (basal control), test compound or reference agonist. For stimulated control measurement, separate assay wells contained 1 μM 5-HT. Following incubation, the cells were lysed and the fluorescence acceptor (fluorophen D2-labeled IP1) and fluorescence donor (anti-IP1 antibody labeled with europium cryptate) were added. After 60 minutes at room temperature, the fluorescence transfer was measured at lambda(Ex) 337 nm and lambda(Em) 620 and 665 nm using a microplate reader (Rubystar, BMG). The IP1 concentration was determined by dividing the signal measured at 665 nm by that measured at 620 nm (ratio). The results were expressed as a percent of the control response to 1 μM 5-HT. The standard reference agonist was 5-HT, which was tested in each experiment at several concentrations to generate a concentration-response curve from which its EC50 value is calculated as described above for dopamine functional assays.

[1] = PK experiments in rats, plasma compound (I) after oral dosing; format: in vivo, Han Wistar rats; conditions: for Observed metabolite, In vivo PK study after oral dosing (rats) / conversion to compound (I) in vivo: oral dosing, rats
Description: Plasma was placed on water-ice following collection. Final storage at approximately −70° C.
Mobile phase B: Acetonitrile. […] Flow rate 0.5 mL/min.
The rats had unrestricted access to the diet.
Mobile phase B: Acetonitrile+0.2% formic acid. […] Flow rate 0.3 mL/min.
The rats received a standard laboratory diet Teklad 2014C. The rats had unrestricted access to the diet.

[2] = Conversion of compounds in human plasma; format: in vitro ADME; conditions: for Observed metabolite, Incubation in human plasma: 1 μM test compound, 37° C., 0-6 hr, nd: not detected; for appearance of compound (I) / conversion in vitro: incubation in human plasma and/or human hepatocytes
Description: Frozen human plasma was thawed and then centrifuged at 3200×g for 5 min to remove debris. The pH value of the supernatant was then measured and adjusted to 7.4±0.1 by adding 1% phosphoric acid or 1 N sodium hydroxide. 2 μL of dosing solution (50 μM for test compounds and 100 μM for positive control (propantheline bromide)) was mixed with 98 μL of blank plasma to achieve 1 μM test compound and 2 μM positive control of final concentration. The mixture was incubated, and samples were withdrawn from the incubations at the pre-determined time points of 0, 0.5, 1, 2, 4 and 6 hr (in duplicate) at 37° C. in water bath. At each corresponding time point 10 μL inhibitor and 20 μL ascorbic acid and 2 μL formic acid (20%) are added, and then added 400 μL of “stop solution” (200 ng/mL tolbutamide plus 200 ng/mL labetalol in 50% ACN/MeOH) to precipitate protein. The substance was mixed thoroughly and thereafter Centrifugated at 4,000 rpm for 20 minutes. Then an aliquot of supernatant (50 μL) was transferred from each well to a sample plate and mixed with 100 μL ultrapure water. The plate was shaked at 800 rpm for about 10 minutes before submitting to LC-MS/MS analysis.
Mass spectrometer (LC-MS/MS) Shimadzu LC 20-AD Shimadzu UHPLC API 4000. Analytical column ACQUITY UPLC® BEH Phenyl 1.7 μm 2.1×50 mm. Mobile phase A: 0.1% Formic Acid in Water. Mobile phase B: 0.1% Formic Acid in Acetonitrile. […] Flow rate 0.7 mL/min.

Sequence of human 5-HT2B receptor (P41595 whole entry): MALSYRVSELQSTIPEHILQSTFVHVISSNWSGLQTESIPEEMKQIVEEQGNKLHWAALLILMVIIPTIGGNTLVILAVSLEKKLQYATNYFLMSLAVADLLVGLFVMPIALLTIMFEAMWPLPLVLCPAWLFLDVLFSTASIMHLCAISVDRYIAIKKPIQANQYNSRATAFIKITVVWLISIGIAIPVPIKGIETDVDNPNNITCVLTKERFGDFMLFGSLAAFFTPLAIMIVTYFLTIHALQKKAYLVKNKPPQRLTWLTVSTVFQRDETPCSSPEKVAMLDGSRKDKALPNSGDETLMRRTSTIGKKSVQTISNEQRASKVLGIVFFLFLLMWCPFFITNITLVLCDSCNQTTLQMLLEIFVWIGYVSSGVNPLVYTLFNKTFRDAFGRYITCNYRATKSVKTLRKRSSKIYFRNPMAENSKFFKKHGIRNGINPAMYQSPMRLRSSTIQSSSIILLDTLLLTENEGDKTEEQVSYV

Structure (SMILES) | activity at 10 µM (human 5-HT2B receptor) [%] | Observed metabolite, Incubation in human plasma [2] | appearance of compound (I) / conversion in vitro [2] | also measured
CCCN1CCC[C@@H]2Cc3c(ccc(OC(=O)C(C)(C)C)c3OC(=O)C(C)(C)C)C[C@H]21 [(Ic), reference compound] | -5 | – | – | plasma concentrations of compound (I) after oral dosing (in words) ([1]; oral dosing to Wistar rats): extremely low
CCCN1CCC[C@@H]2Cc3c(ccc(O)c3O[C@@H]3O[C@H](C(=O)OC)[C@@H](OC(C)=O)[C@H](OC(C)=O)[C@H]3OC(C)=O)C[C@H]21 [Compound (2), (2S,3R,4S,5S,6S)-2-(((4aR,10aR)-7-hydroxy-1-propyl-1,2,3,4,4a,5,10,10a-octahydrobenzo[g]quinolin-6-yl)oxy)-6-(methoxycarbonyl)tetrahydro-2H-pyran-3,4,5-triyl triacetate] | 10 | Compound (Id-ia) | no appearance of compound (I) | Observed metabolite, In vivo PK study after oral dosing (rats) [1]: Compound (I); conversion to compound (I) in vivo [1]: showed conversion in vivo
CCCN1CCC[C@@H]2Cc3c(ccc(O)c3O[C@@H]3OC(C(=O)OC)=C[C@H](OC(C)=O)[C@H]3OC(C)=O)C[C@H]21 [Compound (3), (2R,3R,4S)-2-(((4aR,10aR)-7-hydroxy-1-propyl-1,2,3,4,4a,5,10,10a-octahydrobenzo[g]quinolin-6-yl)oxy)-6-(methoxycarbonyl)-3,4-dihydro-2H-pyran-3,4-diyl diacetate] | – | Compound (9) | – | –
CCCN1CCC[C@@H]2Cc3c(ccc(OCc4ccccc4)c3O[C@@H]3O[C@H](C(=O)O)[C@@H](O)[C@H](O)[C@H]3O)C[C@H]21 [Compound (4), (2S,3S,4S,5R,6S)-6-(((4aR,10aR)-7-(benzyloxy)-1-propyl-1,2,3,4,4a,5,10,10a-octahydrobenzo[g]quinolin-6-yl)oxy)-3,4,5-trihydroxytetrahydro-2H-pyran-2-carboxylic acid] | – | Compound A2 | – | –
CCCN1CCC[C@@H]2Cc3c(ccc(O)c3O[C@@H]3OC(C(=O)O)=C[C@H](O)[C@H]3O)C[C@H]21 [Compound (9), (2R,3R,4S)-3,4-dihydroxy-2-(((4aR,10aR)-7-hydroxy-1-propyl-1,2,3,4,4a,5,10,10a-octahydrobenzo[g]quinolin-6-yl)oxy)-3,4-dihydro-2H-pyran-6-carboxylic acid] | 9 | – | no appearance of compound (I) | conversion to compound (I) in vivo [1]: showed conversion in vivo
CCCN1CCC[C@@H]2Cc3c(ccc(O)c3O[C@@H]3O[C@H](C(=O)OCC)[C@@H](OC(C)=O)[C@H](OC(C)=O)[C@H]3OC(C)=O)C[C@H]21 [Compound (11), (2S,3S,4S,5R,6S)-2-(ethoxycarbonyl)-6-(((4aR,10aR)-7-hydroxy-1-propyl-1,2,3,4,4a,5,10,10a-octahydrobenzo[g]quinolin-6-yl)oxy)tetrahydro-2H-pyran-3,4,5-triyl triacetate] | – | – | converted to compound (Id-ia) | –
CCCN1CCC[C@@H]2Cc3c(ccc(O)c3O[C@@H]3O[C@H](C(=O)OCC)[C@@H](OC(=O)C(C)(C)C)[C@H](OC(=O)C(C)(C)C)[C@H]3OC(=O)C(C)(C)C)C[C@H]21 [Compound (14), (2S,3S,4S,5R,6S)-2-(ethoxycarbonyl)-6-(((4aR,10aR)-7-hydroxy-1-propyl-1,2,3,4,4a,5,10,10a-octahydrobenzo[g]quinolin-6-yl)oxy)tetrahydro-2H-pyran-3,4,5-triyl tris(2,2-dimethylpropanoate)] | – | Compound (6) | – | –
CCCN1CCC[C@@H]2Cc3c(ccc(OC)c3O[C@@H]3O[C@H](C(=O)O)[C@@H](O)[C@H](O)[C@H]3O)C[C@H]21 [Compound (15), (2S,3S,4S,5R,6S)-3,4,5-trihydroxy-6-(((4aR,10aR)-7-methoxy-1-propyl-1,2,3,4,4a,5,10,10a-octahydrobenzo[g]quinolin-6-yl)oxy)tetrahydro-2H-pyran-2-carboxylic acid] | 0 | – | no appearance of compound (I) | conversion to compound (I) in vivo [1]: showed conversion in vivo
CCCN1CCC[C@@H]2Cc3c(ccc(O)c3O[C@@H]3O[C@H](C(=O)OC)[C@@H](OC(=O)C(C)(C)C)[C@H](OC(=O)C(C)(C)C)[C@H]3OC(=O)C(C)(C)C)C[C@H]21 [Compound (26), (2S,3S,4S,5R,6S)-2-(methoxycarbonyl)-6-(((4aR,10aR)-7-hydroxy-1-propyl-1,2,3,4,4a,5,10,10a-octahydrobenzo[g]quinolin-6-yl)oxy)tetrahydro-2H-pyran-3,4,5-triyl tris(2,2-dimethylpropanoate)] | – | Compound (6) | – | –
CCCN1CCC[C@@H]2Cc3c(ccc(O[C@@H]4O[C@H](C(=O)OC)[C@@H](OC(C)=O)[C@H](OC(C)=O)[C@H]4OC(C)=O)c3O)C[C@H]21 [Compound (27), (2S,3R,4S,5S,6S)-2-(((4aR,10aR)-6-hydroxy-1-propyl-1,2,3,4,4a,5,10,10a-octahydrobenzo[g]quinolin-7-yl)oxy)-6-(methoxycarbonyl)tetrahydro-2H-pyran-3,4,5-triyl triacetate] | 2 | Compound (Id-ib) | – | Observed metabolite, In vivo PK study after oral dosing (rats) [1]: Compound (I)
CCCN1CCC[C@@H]2Cc3c(ccc(OCc4ccccc4)c3O)C[C@H]21.I [Compound A2, (4aR,10aR)-7-(Benzyloxy)-1-propyl-1,2,3,4,4a,5,10,10a-octahydrobenzo[g]quinolin-6-ol hydroiodide] | 30 | – | – | Observed metabolite, In vivo PK study after oral dosing (rats) [1]: Compound (I)
CCCN1CCC[C@@H]2Cc3c(ccc(O[C@@H]4O[C@H](C(=O)OC)[C@@H](OC(C)=O)[C@H](OC(C)=O)[C@H]4OC(C)=O)c3OC(C)=O)C[C@H]21 [Compound A3, (2S,3R,4S,5S,6S)-2-(((4aR,10aR)-6-Acetoxy-1-propyl-1,2,3,4,4a,5,10,10a-octahydrobenzo[g]quinolin-7-yl)oxy)-6-(methoxycarbonyl)tetrahydro-2H-pyran-3,4,5-triyl triacetate] | – | compound (27) | – | 5-HT2B agonist activity, percent of control response (human 5-HT2B receptor; @ 10 μM): 3% @ 10 μM
CCCN1CCC[C@@H]2Cc3c(ccc(O[C@@H]4O[C@H](C(=O)OC)[C@@H](OC(C)=O)[C@H](OC(C)=O)[C@H]4OC(C)=O)c3O[C@@H]3O[C@H](C(=O)OC)[C@@H](OC(C)=O)[C@H](OC(C)=O)[C@H]3OC(C)=O)C[C@H]21 [Compound I2, methyl (2S,3S,4S,5R,6S)-6-[[(4aR,10aR)-1-propyl-6-[(2S,3R,4S,5S,6S)-3,4,5-triacetoxy-6-methoxycarbonyl-tetrahydropyran-2-yl]oxy-3,4,4a,5,10,10a-hexahydro-2H-benzo[g]quinolin-7-yl]oxy]-3,4,5-triacetoxy-tetrahydropyran-2-carboxylate] | – | – | no vitro conversion | –
